Experimental data taken from ChEMBL document CHEMBL3585263, “Novel Octahydropyrrolo[3,4-c]pyrroles Are Selective Orexin-2 Antagonists: SAR Leading to a Clinical Candidate” (J Med Chem, 2015).
pKi: −log10 of the molar value. ≈ marks a conversion by molar mass, not a printed value.

Assays:
[1] = target: T1, Orexin/Hypocretin receptor type 1 (Homo sapiens, UniProt O43613); test: Binding affinity to human OX1 receptor
T1 sequence (O43613 whole entry): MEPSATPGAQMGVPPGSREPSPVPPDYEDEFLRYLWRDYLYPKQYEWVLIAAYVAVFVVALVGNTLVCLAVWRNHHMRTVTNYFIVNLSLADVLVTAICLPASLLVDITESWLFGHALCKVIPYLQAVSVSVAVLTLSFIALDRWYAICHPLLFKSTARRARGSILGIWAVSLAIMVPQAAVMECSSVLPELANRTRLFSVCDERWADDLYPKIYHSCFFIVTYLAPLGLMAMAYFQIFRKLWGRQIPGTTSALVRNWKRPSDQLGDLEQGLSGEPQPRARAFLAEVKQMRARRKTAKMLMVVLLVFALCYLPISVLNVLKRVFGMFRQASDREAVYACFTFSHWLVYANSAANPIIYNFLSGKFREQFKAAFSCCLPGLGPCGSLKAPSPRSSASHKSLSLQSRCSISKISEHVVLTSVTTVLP

[2] = target: T2, Orexin receptor type 2 (Homo sapiens, UniProt O43614); test: Displacement of [3H]EMPA from human OX2 receptor expressed in human PFSK-1 cells; assay type: cell-based
T2 sequence (O43614 whole entry): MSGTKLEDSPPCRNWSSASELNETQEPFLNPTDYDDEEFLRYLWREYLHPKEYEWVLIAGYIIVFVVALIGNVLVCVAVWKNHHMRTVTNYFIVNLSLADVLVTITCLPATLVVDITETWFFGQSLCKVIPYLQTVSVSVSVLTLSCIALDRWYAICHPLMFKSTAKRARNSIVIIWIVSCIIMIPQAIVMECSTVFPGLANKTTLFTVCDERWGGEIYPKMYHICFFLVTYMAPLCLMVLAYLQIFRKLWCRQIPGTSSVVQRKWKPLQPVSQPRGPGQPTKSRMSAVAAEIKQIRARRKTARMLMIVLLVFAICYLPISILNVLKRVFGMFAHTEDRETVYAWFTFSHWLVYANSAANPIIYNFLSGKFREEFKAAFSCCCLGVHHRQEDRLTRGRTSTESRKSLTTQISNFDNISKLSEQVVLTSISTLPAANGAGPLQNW

[3] = target: T2, Orexin receptor type 2; test: Binding affinity to human OX2 receptor
[4] = system: Rattus norvegicus; test: Ex vivo OX2 receptor occupancy in po dosed Sprague-Dawley rat brain after 15 mins by autoradiographic analysis; assay type: functional, organism-based
[5] = Chemical stability of the compound assessed as compound remaining at ambient relative humidity at 80 degC after 4 weeks by HPLC analysis; assay type: physicochemical; details: read-out: Stability
[6] = target: T3, Orexin receptor type 2 (Rattus norvegicus, UniProt P56719); test: Binding affinity to rat OX2 receptor
T3 sequence (P56719 whole entry): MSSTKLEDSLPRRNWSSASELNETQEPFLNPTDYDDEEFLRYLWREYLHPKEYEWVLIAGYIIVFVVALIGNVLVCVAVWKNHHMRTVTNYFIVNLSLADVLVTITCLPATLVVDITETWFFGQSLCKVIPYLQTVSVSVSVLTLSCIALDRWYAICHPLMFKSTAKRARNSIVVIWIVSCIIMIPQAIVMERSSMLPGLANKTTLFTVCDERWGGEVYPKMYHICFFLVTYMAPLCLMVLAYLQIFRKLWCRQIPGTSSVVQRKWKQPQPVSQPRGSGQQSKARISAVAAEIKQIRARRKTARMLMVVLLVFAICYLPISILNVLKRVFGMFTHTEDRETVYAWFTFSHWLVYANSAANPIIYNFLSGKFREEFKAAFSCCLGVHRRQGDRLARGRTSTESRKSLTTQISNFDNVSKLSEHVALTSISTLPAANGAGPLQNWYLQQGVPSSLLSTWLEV

[7] = Oral bioavailability in Sprague-Dawley rat at 10 mg/kg; assay type: ADME, organism-based; details: in vivo
[8] = Clearance in beagle dog at 10 mg/kg, po and 1 mg/kg, iv; assay type: ADME, organism-based, Canis lupus familiaris; details: in vivo
[9] = Half life in cynomolgus monkey at 1 mg/kg, iv; assay type: ADME, organism-based, Macaca fascicularis; details: in vivo
[10] = Oral bioavailability in beagle dog at 10 mg/kg; assay type: ADME, organism-based, Canis lupus familiaris; details: in vivo
[11] = Half life in Balb/c mouse at 1 mg/kg, iv; assay type: ADME, organism-based; details: in vivo
[12] = Chemical stability of the compound assessed as compound remaining at 75% relative humidity at 40 degC after 4 weeks by HPLC analysis; assay type: physicochemical; details: read-out: Stability
[13] = system: Plasma; test: Plasma protein binding in human at 1 uM after 6 hrs by equilibrium dialysis method; assay type: ADME, cell-free; details: 6 h, 1 µM
[14] = Chemical stability of the compound in pH 4 acetate buffer assessed as compound remaining at 60 degC after 1 week by HPLC analysis; assay type: physicochemical; details: read-out: Stability
[15] = Volume of distribution at steady state in cynomolgus monkey at 10 mg/kg, po and 1 mg/kg, iv; assay type: ADME, organism-based, Macaca fascicularis; details: in vivo, read-out: Vdss
[16] = Chemical stability of the compound in pH 4 acetate buffer assessed as compound remaining at room temperature after 4 weeks by HPLC analysis; assay type: physicochemical; details: read-out: Stability
[17] = system: Plasma; test: Plasma protein binding in rat at 1 uM after 6 hrs by equilibrium dialysis method; assay type: ADME, cell-free; details: 6 h, 1 µM
[18] = Chemical stability of the compound in pH 10 carbonate buffer assessed as compound remaining at 60 degC after 4 weeks by HPLC analysis; assay type: physicochemical; details: read-out: Stability
[19] = Chemical stability of the compound in pH 10 carbonate buffer assessed as compound remaining at room temperature after 4 weeks by HPLC analysis; assay type: physicochemical; details: read-out: Stability
[20] = Chemical stability of the compound assessed as compound remaining at ambient relative humidity at 22 degC after 4 weeks by HPLC analysis; assay type: physicochemical; details: read-out: Stability
[21] = Clearance in cynomolgus monkey at 10 mg/kg, po and 1 mg/kg, iv; assay type: ADME, organism-based, Macaca fascicularis; details: in vivo
[22] = Chemical stability of the compound in pH 2 phosphate buffer assessed as compound remaining at room temperature after 4 weeks by HPLC analysis; assay type: physicochemical; details: read-out: Stability
[23] = Physical stability of the compound at ambient relative humidity at 22 degC after 4 weeks by PXRD analysis; assay type: physicochemical; details: 672 h
[24] = Chemical stability of the compound in pH 10 carbonate buffer assessed as compound remaining at 60 degC after 1 week by HPLC analysis; assay type: physicochemical; details: read-out: Stability
[25] = Chemical stability of the compound in pH 2 phosphate buffer assessed as compound remaining at 60 degC after 1 week by HPLC analysis; assay type: physicochemical; details: read-out: Stability
[26] = Half life in beagle dog at 1 mg/kg, iv; assay type: ADME, organism-based, Canis lupus familiaris; details: in vivo
[27] = Physical stability of the compound at 75% relative humidity at 40 degC after 4 weeks by PXRD analysis; assay type: physicochemical; details: 672 h
[28] = Protein binding in rat brain at 5 uM after 5 hrs by equilibrium dialysis method; assay type: ADME, tissue-based; details: read-out: PB (converted)
[29] = system: Rattus norvegicus; test: Effect on REM sleep time in rat electroencephalographic model at 1 to 30 mg/kg, po administered at onset of dark phase measured for 2 hrs by telemetry device; assay type: ADME, organism-based; details: in vivo
[30] = system: Rattus norvegicus; test: Reduction in NREM sleep latency in po dosed rat electroencephalographic model administered at onset of dark phase by telemetry device; assay type: functional, organism-based
[31] = Chemical stability of the compound in pH 10 carbonate buffer assessed as compound remaining at room temperature after 1 week by HPLC analysis; assay type: physicochemical; details: read-out: Stability
[32] = Chemical stability of the compound in pH 7.4 phosphate buffer assessed as compound remaining at 60 degC after 4 weeks by HPLC analysis; assay type: physicochemical; details: read-out: Stability
[33] = Chemical stability of the compound in pH 2 phosphate buffer assessed as compound remaining at 60 degC after 4 weeks by HPLC analysis; assay type: physicochemical; details: read-out: Stability
[34] = Volume of distribution at steady state in Sprague-Dawley rat at 10 mg/kg, po and 1 mg/kg, iv; assay type: ADME, organism-based; details: in vivo, read-out: Vdss
[35] = Chemical stability of the compound in pH 7.4 phosphate buffer assessed as compound remaining at 60 degC after 1 week by HPLC analysis; assay type: physicochemical; details: read-out: Stability
[36] = Chemical stability of the compound in pH 7.4 phosphate buffer assessed as compound remaining at room temperature after 4 weeks by HPLC analysis; assay type: physicochemical; details: read-out: Stability
[37] = system: Plasma; test: Fraction unbound in rat plasma at 0.1 to 10 uM after 6 hrs by equilibrium dialysis method; assay type: ADME, cell-free
[38] = Volume of distribution at steady state in Balb/c mouse at 10 mg/kg, po and 1 mg/kg, iv; assay type: ADME, organism-based; details: in vivo, read-out: Vdss
[39] = Chemical stability of the compound in pH 4 acetate buffer assessed as compound remaining at room temperature after 1 week by HPLC analysis; assay type: physicochemical; details: read-out: Stability
[40] = Fraction unbound in mouse plasma at 0.1 to 10 uM after 6 hrs by equilibrium dialysis method; assay type: ADME, cell-free
[41] = Chemical stability of the compound in pH 7.4 phosphate buffer assessed as compound remaining at room temperature after 1 week by HPLC analysis; assay type: physicochemical; details: read-out: Stability
[42] = Half life in Sprague-Dawley rat at 1 mg/kg, iv; assay type: ADME, organism-based; details: in vivo
[43] = Chemical stability of the compound in pH 2 phosphate buffer assessed as compound remaining at room temperature after 1 week by HPLC analysis; assay type: physicochemical; details: read-out: Stability
[44] = Clearance in Balb/c mouse at 10 mg/kg, po and 1 mg/kg, iv; assay type: ADME, organism-based; details: in vivo
[45] = system: Plasma; test: Fraction unbound in human plasma at 0.1 to 10 uM after 6 hrs by equilibrium dialysis method; assay type: ADME, cell-free
[46] = Oral bioavailability in Balb/c mouse at 10 mg/kg; assay type: ADME, organism-based; details: in vivo
[47] = system: Rattus norvegicus; test: Ex vivo OX2 receptor occupancy in Sprague-Dawley rat brain at 30 mg/kg, po after 15 mins by autoradiographic analysis; assay type: functional
[48] = Oral bioavailability in cynomolgus monkey at 10 mg/kg; assay type: ADME, organism-based, Macaca fascicularis; details: in vivo
[49] = Chemical stability of the compound in pH 4 acetate buffer assessed as compound remaining at 60 degC after 4 weeks by HPLC analysis; assay type: physicochemical; details: read-out: Stability
[50] = Clearance in Sprague-Dawley rat at 10 mg/kg, po and 1 mg/kg, iv; assay type: ADME, organism-based; details: in vivo
[51] = Fraction unbound in beagle dog plasma at 0.1 to 10 uM after 6 hrs by equilibrium dialysis method; assay type: ADME, cell-free, Canis lupus familiaris
[52] = Physical stability of the compound at ambient relative humidity at 80 degC after 4 weeks by PXRD analysis; assay type: physicochemical; details: 672 h
[53] = Volume of distribution at steady state in beagle dog at 10 mg/kg, po and 1 mg/kg, iv; assay type: ADME, organism-based, Canis lupus familiaris; details: in vivo, read-out: Vdss
[54] = Fraction unbound in cynomolgus monkey plasma at 0.1 to 10 uM after 6 hrs by equilibrium dialysis method; assay type: ADME, cell-free, Macaca fascicularis
[55] = system: Rattus norvegicus; test: Increase in NREM sleep time in po dosed rat electroencephalographic model administered at onset of dark phase measured for 2 hrs by telemetry device; assay type: functional, organism-based

Structure (SMILES): COc1cccc(OC)c1C(=O)N1C[C@@H]2CN(c3nc4ccc(Cl)cc4s3)C[C@@H]2C1
- pKi [1]: 5.16
- pKi [2]: 5.80
- pKi [3]: 5.66

Structure (SMILES): Cc1cc(C)nc(N2C[C@H]3CN(C(=O)c4c(F)cccc4-n4nccn4)C[C@H]3C2)n1 [SELTOREXANT]
- EC50 [4]: 0.171 µg/mL (≈ 0.42 µM)
- Occ [4]: Dose-dependent effect
- ED50 ([4]; po): 3 mg/kg
- remaining at 672 h [5]: 100%
- pKi [6]: 8.00
- bioavailability [7]: 24%
- clearance [8]: 9.8 mL/min/kg
- half-life [9]: 24 min
- bioavailability [10]: 19%
- half-life [11]: 12 min
- remaining at 672 h [12]: 100%
- PPB [13]: 95.9%
- remaining at 168 h [14]: 99.4%
- Vd [15]: 0.4 L/kg
- remaining at 672 h [16]: 101%
- PPB [17]: 92.7%
- remaining at 672 h [18]: 102%
- remaining at 672 h [19]: 102%
- remaining at 672 h [20]: 100%
- clearance [21]: 16 mL/min/kg
- remaining at 672 h [22]: 102%
- Stability [23]: Stable
- remaining at 168 h [24]: 102%
- remaining at 168 h [25]: 101%
- half-life [26]: 66 min
- Stability [27]: Stable
- fraction unbound at 5 h, 5 µM [28]: 0.119
- Activity [29]: Non-toxic
- Activity [30]: Dose-dependent effect
- remaining at 168 h [31]: 101%
- remaining at 672 h [32]: 99.8%
- remaining at 672 h [33]: 101%
- Vd [34]: 0.7 L/kg
- remaining at 168 h [35]: 102%
- remaining at 672 h [36]: 103%
- Fu [37]: 5.6%
- Vd [38]: 0.6 L/kg
- remaining at 168 h [39]: 99.7%
- fraction unbound at 6 h [40]: 0.041
- remaining at 168 h [41]: 101%
- half-life [42]: 18 min
- remaining at 168 h [43]: 100%
- clearance [44]: 36 mL/min/kg
- Fu [45]: 2.9%
- bioavailability [46]: 16%
- Occ [47]: 71%
- bioavailability [48]: 6%
- remaining at 672 h [49]: 102%
- clearance [50]: 40 mL/min/kg
- fraction unbound at 6 h [51]: 0.096
- Stability [52]: Stable
- Vd [53]: 0.7 L/kg
- fraction unbound at 6 h [54]: 0.044
- Activity [55]: Dose-dependent effect
